# Molecular target: GST-Xa-hAAK1 (Homo sapiens (Human), UniProt Q2M2I8)
# Assay: AAK1 Kinase Assay;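 also: each compound tested across an eleven-point concentration series, with IC50 obtained through non-linear regression fitting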
# Type: biochemical
# Conditions: bacterially expressed GST-Xa-hAAK1 3.5 nM; ATP 22 μM; peptide substrate 1.5 μM; 3 hours at room temperature; Caliper LabChip 3000
# GST-Xa-hAAK1, sequence (Q2M2I8 whole entry): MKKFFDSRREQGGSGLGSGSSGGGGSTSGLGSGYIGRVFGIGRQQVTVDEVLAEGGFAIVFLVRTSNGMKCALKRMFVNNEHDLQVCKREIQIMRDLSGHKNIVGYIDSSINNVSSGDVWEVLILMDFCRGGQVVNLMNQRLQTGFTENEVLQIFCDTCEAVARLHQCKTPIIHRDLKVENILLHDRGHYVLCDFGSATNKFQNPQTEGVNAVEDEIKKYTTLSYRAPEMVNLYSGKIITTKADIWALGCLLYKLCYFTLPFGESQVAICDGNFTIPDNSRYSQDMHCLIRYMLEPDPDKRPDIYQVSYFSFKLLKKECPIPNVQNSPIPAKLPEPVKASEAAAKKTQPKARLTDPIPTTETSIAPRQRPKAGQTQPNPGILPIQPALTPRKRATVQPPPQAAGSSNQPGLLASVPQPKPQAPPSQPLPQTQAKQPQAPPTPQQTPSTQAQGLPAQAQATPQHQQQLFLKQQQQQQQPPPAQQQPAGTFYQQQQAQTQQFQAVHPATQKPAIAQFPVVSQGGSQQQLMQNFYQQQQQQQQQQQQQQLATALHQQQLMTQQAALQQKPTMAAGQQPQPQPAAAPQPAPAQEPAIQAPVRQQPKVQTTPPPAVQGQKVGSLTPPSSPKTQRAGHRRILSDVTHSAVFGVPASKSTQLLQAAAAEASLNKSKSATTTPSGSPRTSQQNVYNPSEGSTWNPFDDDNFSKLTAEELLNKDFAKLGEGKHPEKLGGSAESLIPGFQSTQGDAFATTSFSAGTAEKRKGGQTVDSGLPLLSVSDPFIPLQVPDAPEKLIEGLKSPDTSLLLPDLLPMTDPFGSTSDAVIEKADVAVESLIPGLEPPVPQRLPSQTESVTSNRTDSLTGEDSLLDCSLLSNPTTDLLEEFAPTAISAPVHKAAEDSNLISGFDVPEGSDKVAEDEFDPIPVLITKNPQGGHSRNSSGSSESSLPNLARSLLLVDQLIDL
row,SMILES,IC50 [nM]
1,"CC(=O)Nc1cc(-c2ccc(OC[C@@](C)(N)CC(C)C)c(F)c2)ccn1 [Example 27, (S)—N-(4-(4-((2-amino-2,4-dimethylpentyl)oxy)-3-fluorophenyl)pyridin-2-yl)acetamide]",1
2,"CC(C)C[C@](C)(N)COc1ccc(-c2cc(F)ncc2Cl)cc1C(F)(F)F [Example 40, (S)-1-(4-(5-chloro-2-fluoropyridin-4-yl)-2-(trifluoromethyl)phenoxy)-2,4-dimethylpentan-2-amine]",8.7
3,"COC(=O)Nc1nccc(-c2ccc(OC[C@@](C)(N)CC(C)C)c(C#N)c2)c1F [Example 100, (S)-methyl (4-(4-((2-amino-2,4-dimethylpentyl)oxy)-3-cyanophenyl)-3-fluoropyridin-2-yl)carbamate]",6.8
4,"Cc1cc(-c2ccnc(C(F)F)c2)ncc1OC[C@@](C)(N)CC(C)C [Example 125, (S)-1-((2′-(difluoromethyl)-4-methyl-[2,4′-bipyridin]-5-yl)oxy)-2,4-dimethylpentan-2-amine]",1.6
5,"CC(C)C[C@](C)(N)COc1ccc(-c2ccnc(C(F)F)c2)cc1OC(F)(F)F [Example 38, (S)-1-(4-(2-(difluoromethyl)pyridin-4-yl)-2-(trifluoromethoxy)phenoxy)-2,4-dimethylpentan-2-amine]",0.79
6,"Cc1cc(-c2ccnc3cc(C#N)ccc23)cnc1OC[C@@](C)(N)CC(C)C [Example 96, (S)-4-(6-((2-amino-2,4-dimethylpentyl)oxy)-5-methylpyridin-3-yl)quinoline-7-carbonitrile]",3
7,"CC(C)C[C@](C)(N)COc1ccc(-c2ccnc(C(F)F)c2)nc1C(F)F [Example 123, (S)-1-((2′,6-bis(difluoromethyl)-[2,4′-bipyridin]-5-yl)oxy)-2,4-dimethylpentan-2-amine]",2.2
8,"COC(=O)Nc1cc(-c2ccc(OCC3(CC(C)C)CNC3)c(C)n2)ccn1 [Example 108, methyl (5-((3-isobutylazetidin-3-yl)methoxy)-6-methyl-[2,4′-bipyridin]-2′-yl)carbamate]",106
9,"Cc1cc(-c2ccc(OC[C@@H](N)CC(C)C)c(C#N)c2)ccn1 [Example 15, (S)-2-((2-amino-4-methylpentyl)oxy)-5-(2-methylpyridin-4-yl)benzonitrile]",0.81
10,"CC(=O)Nc1cc(-c2ccc(OC[C@@](C)(N)CC(C)C)c(C#N)c2)ccn1 [Example 21, (S)—N-(4-(4-((2-amino-2,4-dimethylpentyl)oxy)-3-cyanophenyl)pyridin-2-yl)acetamide]",0.74
11,"Cc1ccc2c(-c3ccc(OC[C@@](C)(N)CC(C)C)c(C#N)c3)ccnc2c1 [Example 102, (S)-2-((2-amino-2,4-dimethylpentyl)oxy)-5-(7-methylquinolin-4-yl)benzonitrile]",1.3
12,"Cc1cc(-c2ccc(OC[C@@H](N)CC(C)C)c(-c3ccno3)c2)ccn1 [Example 18, (S)-1-(2-(isoxazol-5-yl)-4-(2-methylpyridin-4-yl)phenoxy)-4-methylpentan-2-amine]",5
13,"CC(C)C[C@](C)(N)COc1cnc(-c2ccnc3cc(F)ccc23)cc1C(F)F [Example 131, (S)-1-((4-(difluoromethyl)-6-(7-fluoroquinolin-4-yl)pyridin-3-yl)oxy)-2,4-dimethylpentan-2-amine]",0.82
14,"CC(C)C[C@](C)(N)COc1cnc(-c2ccnc3ccc(Cl)cc23)cc1Cl [Example 239, (S)-1-((4-chloro-6-(6-chloroquinolin-4-yl)pyridin-3-yl)oxy)-2,4-dimethylpentan-2-amine]",0.39
15,"CC(C)C[C@](C)(N)COc1cnc(-c2ccnc(C(F)F)c2)cc1C(F)F [Example 124, (S)-1-((2′,4-bis(difluoromethyl)-[2,4′-bipyridin]-5-yl)oxy)-2,4-dimethylpentan-2-amine]",1.2

# Now from value to compound:
row,IC50 [nM],SMILES
1,1.4,"COC(=O)Nc1cc(-c2cc(Cl)c(OC[C@@](C)(N)CC(C)C)cn2)ccn1 [Example 237, (S)-methyl (5-((2-amino-2,4-dimethylpentyl)oxy)-4-chloro-[2,4′-bipyridin]-2′-yl)carbamate]"
2,42,"COC(=O)Nc1cc(-c2ccc(OC[C@](C)(N)CC(C)C)c(C)n2)ccn1 [Example 173, (R)-methyl (5-((2-amino-2,4-dimethylpentyl)oxy)-6-methyl-[2,4′-bipyridin]-2′-yl)carbamate]"
3,0.8,"Cc1nccc(-c2ccc(OC[C@@](C)(N)CC(C)C)c(C(F)F)n2)c1F [Example 160, (S)-1-((6-(difluoromethyl)-3′-fluoro-2′-methyl-[2,4′-bipyridin]-5-yl)oxy)-2,4-dimethylpentan-2-amine]"
4,66,"CC(C)C[C@](N)(CF)COc1ccc(-c2ccnc(C(F)F)c2)nc1C(F)F [Example 185, (R)-1-((2′,6-bis(difluoromethyl)-[2,4′-bipyridin]-5-yl)oxy)-2-(fluoromethyl)-4-methylpentan-2-amine]"
5,0.86,"CC(C)C[C@](C)(N)COc1cnc(-c2ccnc3cc(F)ccc23)cc1Cl [Example 241, (S)-1-((4-chloro-6-(7-fluoroquinolin-4-yl)pyridin-3-yl)oxy)-2,4-dimethylpentan-2-amine]"
6,20,"COC(=O)Nc1cc(-c2cc(C(F)(F)F)c(OC[C@](C)(N)CC(C)C)cn2)ccn1 [Example 166, (R)-methyl (5-((2-amino-2,4-dimethylpentyl)oxy)-4-(trifluoromethyl)-[2,4′-bipyridin]-2′-yl)carbamate]"
7,4.3,"COC(=O)Nc1cc(-c2cc(OC)c(OC[C@@](C)(N)CC(C)C)cn2)ccn1 [Example 206, (S)-methyl (5-((2-amino-2,4-dimethylpentyl)oxy)-4-methoxy-[2,4′-bipyridin]-2′-yl)carbamate]"
8,0.93,"Cc1cc(-c2ccnc3cc(F)cc(F)c23)ncc1OC[C@@](C)(N)CC(C)C [Example 226, (S)-1-((6-(5,7-difluoroquinolin-4-yl)-4-methylpyridin-3-yl)oxy)-2,4-dimethylpentan-2-amine]"
9,0.56,"CC(C)C[C@](C)(N)COc1cnc(-c2ccnc(Cl)c2)cc1C(F)F [Example 147, (S)-1-((2′-chloro-4-(difluoromethyl)-[2,4′-bipyridin]-5-yl)oxy)-2,4-dimethylpentan-2-amine]"
10,254,"Cc1cc(-c2cc(C(F)(F)F)c(OC[C@](C)(N)CC(C)C)cn2)ccn1 [Example 164, (R)-2,4-dimethyl-1-((2′-methyl-4-(trifluoromethyl)-[2,4′-bipyridin]-5-yl)oxy)pentan-2-amine]"
11,27,"Cc1nc(-c2ccnc3cc(F)ccc23)ccc1OC[C@@](C)(N)CC(C)C [Example 137, (S)-1-((6-(7-fluoroquinolin-4-yl)-2-methylpyridin-3-yl)oxy)-2,4-dimethylpentan-2-amine]"
12,0.98,"CC(C)C[C@](C)(N)COc1cnc(-c2ccnc3ccccc23)cc1Cl [Example 236, (S)-1-((4-chloro-6-(quinolin-4-yl)pyridin-3-yl)oxy)-2,4-dimethylpentan-2-amine]"
13,1.9,"Cc1nc(-c2ccnc(N)c2F)ccc1OC[C@@](C)(N)CC(C)C [Example 153, (S)-5-((2-amino-2,4-dimethylpentyl)oxy)-3′-fluoro-6-methyl-[2,4′-bipyridin]-2′-amine]"
14,22,"Cc1cc(-c2cc(C)c(OC[C@@](C)(N)CC(C)C)cn2)ccn1 [Example 228, (S)-1-((2′,4-dimethyl-[2,4′-bipyridin]-5-yl)oxy)-2,4-dimethylpentan-2-amine]"

# — patent US9902722B2, “Biaryl kinase inhibitors” (BRISTOL-MYERS SQUIBB COMPANY, priority 2014, dated 2018)
